Data as given in the supplement of paper PMC10627819.

How the values were obtained:
B. subtilis 168 [1] = test: fitness (endpoint OD595 vs no drug) (fraction); higher = more growth
How it was run: (§1)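 Growth medium was TSB, LB Lennox or CY, and plates were kept at 37 °C. Inoculation was at OD595 0.01 in 384-well plates, at 30 µl per well or 55 µl for S. pneumoniae. OD595 was monitored every 30 min for 14 h and background-subtracted using the first reading. Fitness is the optical density on entering stationary phase divided by the robust mean of no-drug controls, with values capped at 1.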

S. pneumoniae D39V [2] = test: as above
How it was run: as §1

S. aureus DSM 20231 [3] = test: as above
How it was run: as §1

S. aureus Newman [4] = test: as above
How it was run: as §1

B. subtilis 168 [5] = test: Bliss interaction score (quartile over a dose matrix) (fitness difference); higher = more antagonism (negative = synergy)
How it was run: (§2)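 The Bliss score subtracts expected fitness, the product of the single-drug fitness values, from observed fitness. Fitness is plate-normalised OD595 at entry into stationary phase, relative to the robust no-drug mean and capped at 1, with single-drug fitness inferred from combinations. Summaries are quartiles over technical, biological and donor/recipient replicates.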

S. pneumoniae D39V [6] = test: as above
How it was run: as §2

S. aureus DSM 20231 [7] = test: as above
How it was run: as §2

S. aureus Newman [8] = test: as above
How it was run: as §2
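For Bliss interaction score (quartile over a dose matrix) in this document: first quartile when negative (synergy) and third quartile when positive (antagonism).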

COc1cccc2c1C(=O)c1c(O)c3c(c(O)c1C2=O)C[C@@](O)(C(=O)CO)C[C@@H]3O[C@H]1C[C@H](N)[C@H](O)[C@H](C)O1 [Doxorubicin] + COc1ccc(C[C@H](N)C(=O)N[C@H]2[C@@H](O)[C@H](n3cnc4c(N(C)C)ncnc43)O[C@@H]2CO)cc1 [Puromycin]
fitness
Conditions | first compound 0.25 µg/mL | first compound 0.5 µg/mL | first compound 0.625 µg/mL | first compound 1 µg/mL | first compound 1.25 µg/mL | first compound 2.5 µg/mL
B. subtilis 168 [1], partner 0.39 µg/mL | – | – | 0.918 | – | 0.879 | 0.558
B. subtilis 168 [1], partner 0.78 µg/mL | – | – | 0.987 | – | 0.925 | 0.45
B. subtilis 168 [1], partner 1.56 µg/mL | – | – | 0.925 | – | 0.89 | 0.336
S. aureus DSM 20231 [3], partner 0.39 µg/mL | – | – | 0.912 | – | 0.869 | 0.803
S. aureus DSM 20231 [3], partner 0.78 µg/mL | – | – | 0.889 | – | 0.954 | 0.783
S. aureus DSM 20231 [3], partner 1.56 µg/mL | – | – | 0.874 | – | 0.858 | 0.733
S. aureus Newman [4], partner 0.39 µg/mL | – | – | 0.84 | – | 0.763 | 0.699
S. aureus Newman [4], partner 0.78 µg/mL | – | – | 0.801 | – | 0.767 | 0.68
S. aureus Newman [4], partner 1.56 µg/mL | – | – | 0.84 | – | 0.725 | 0.678
S. pneumoniae D39V [2], partner 1 µg/mL | 0.998 | ≥ 1 | – | 0.882 | – | –
S. pneumoniae D39V [2], partner 2 µg/mL | 0.926 | 0.914 | – | 0.874 | – | –
S. pneumoniae D39V [2], partner 4 µg/mL | 0.54 | 0.567 | – | 0.399 | – | –

fitness, S. aureus DSM 20231 [3], one replicate
Conditions | first compound 0.625 µg/mL | first compound 1.25 µg/mL | first compound 2.5 µg/mL
partner 3.12 µg/mL | 0.91 | 0.821 | 0.776
partner 6.24 µg/mL | 0.801 | 0.679 | 0.59

Conditions | Bliss interaction score
B. subtilis 168 [5] | -0.059
S. aureus DSM 20231 [7] | -0.0672
S. aureus Newman [8] | -0.0786
S. pneumoniae D39V [6] | 0.0661

COc1cccc2c1C(=O)c1c(O)c3c(c(O)c1C2=O)C[C@@](O)(C(=O)CO)C[C@@H]3O[C@H]1C[C@H](N)[C@H](O)[C@H](C)O1 [Doxorubicin] + C[C@@H]1O[C@@H]1P(=O)(O)O [Fosfomycin]
Conditions | fitness
B. subtilis 168 [1], first compound 0.625 µg/mL, partner 1.562 µg/mL | 0.7
B. subtilis 168 [1], first compound 0.625 µg/mL, partner 3.124 µg/mL | 0.605
B. subtilis 168 [1], first compound 0.625 µg/mL, partner 6.248 µg/mL | 0.412
B. subtilis 168 [1], first compound 1.25 µg/mL, partner 1.562 µg/mL | 0.655
B. subtilis 168 [1], first compound 1.25 µg/mL, partner 3.124 µg/mL | 0.518
B. subtilis 168 [1], first compound 1.25 µg/mL, partner 6.248 µg/mL | 0.302
B. subtilis 168 [1], first compound 2.5 µg/mL, partner 1.562 µg/mL | 0.369
B. subtilis 168 [1], first compound 2.5 µg/mL, partner 6.248 µg/mL | 0.0432
S. aureus DSM 20231 [3], first compound 0.625 µg/mL, partner 0.781 µg/mL | 0.685
S. aureus DSM 20231 [3], first compound 0.625 µg/mL, partner 1.562 µg/mL | 0.587
S. aureus DSM 20231 [3], first compound 0.625 µg/mL, partner 3.124 µg/mL | 0.5
S. aureus DSM 20231 [3], first compound 1.25 µg/mL, partner 0.781 µg/mL | 0.681
S. aureus DSM 20231 [3], first compound 1.25 µg/mL, partner 1.562 µg/mL | 0.603
S. aureus DSM 20231 [3], first compound 1.25 µg/mL, partner 3.124 µg/mL | 0.493
S. aureus DSM 20231 [3], first compound 2.5 µg/mL, partner 0.781 µg/mL | 0.637
S. aureus DSM 20231 [3], first compound 2.5 µg/mL, partner 1.562 µg/mL | 0.506
S. aureus DSM 20231 [3], first compound 2.5 µg/mL, partner 3.124 µg/mL | 0.449
S. aureus Newman [4], first compound 0.625 µg/mL, partner 0.781 µg/mL | 0.615
S. aureus Newman [4], first compound 0.625 µg/mL, partner 1.562 µg/mL | 0.547
S. aureus Newman [4], first compound 0.625 µg/mL, partner 3.124 µg/mL | 0.212
S. aureus Newman [4], first compound 1.25 µg/mL, partner 0.781 µg/mL | 0.618
S. aureus Newman [4], first compound 1.25 µg/mL, partner 1.562 µg/mL | 0.535
S. aureus Newman [4], first compound 1.25 µg/mL, partner 3.124 µg/mL | 0.138
S. aureus Newman [4], first compound 2.5 µg/mL, partner 0.781 µg/mL | 0.595
S. aureus Newman [4], first compound 2.5 µg/mL, partner 1.562 µg/mL | 0.443
S. aureus Newman [4], first compound 2.5 µg/mL, partner 3.124 µg/mL | 0.0485
S. pneumoniae D39V [2], first compound 0.25 µg/mL, partner 1.25 µg/mL | 0.881
S. pneumoniae D39V [2], first compound 0.25 µg/mL, partner 2.5 µg/mL | 0.852
S. pneumoniae D39V [2], first compound 0.25 µg/mL, partner 5 µg/mL | 0.635
S. pneumoniae D39V [2], first compound 0.5 µg/mL, partner 1.25 µg/mL | 0.938
S. pneumoniae D39V [2], first compound 0.5 µg/mL, partner 2.5 µg/mL | 0.859
S. pneumoniae D39V [2], first compound 0.5 µg/mL, partner 5 µg/mL | 0.646
S. pneumoniae D39V [2], first compound 1 µg/mL, partner 1.25 µg/mL | 0.861
S. pneumoniae D39V [2], first compound 1 µg/mL, partner 2.5 µg/mL | 0.823
S. pneumoniae D39V [2], first compound 1 µg/mL, partner 5 µg/mL | 0.669

Conditions | Bliss interaction score
B. subtilis 168 [5] | -0.142
S. aureus DSM 20231 [7] | 0.0338
S. aureus Newman [8] | 0.122
S. pneumoniae D39V [6] | -0.0488
